How the values were obtained:
macrophages = conditions: cited from earlier work
ovarian cancer = conditions: associated with cell cycle arrest, apoptosis induction, metabolic alterations; cited from earlier work
CECR2 BRD = CECR2 BRD (Homo sapiens, UniProt Q9BXF3); conditions: within cells; cited from earlier work
SW48 colon cancer cells = conditions: cited from earlier work
endometrial cancer cells = conditions: cited from earlier work
melanoma = conditions: by suppressing ECM-mediated oncogenic signaling and inducing apoptosis; cited from earlier work
BCL-2 = assay: Western blot of BCL-2 protein levels in SK-UT-1 cells; assay type: cell-based, human; conditions: dose-dependent manner, FIG. 4E-4F
Method: Cells were collected and lysed in RIPA lysis buffer with protease and phosphatase inhibitor cocktail (Thermo Scientific, Waltham, MA, USA), the protein was quantified using the Bradford method (Bio-Rad Protein Assay kit). The antigen—antibody complex was detected with Trident Femto Western HRP substrate (Gene-Tex, Irvine, CA, USA). Specific protein bands were visualized using ChemiDoc XRS ♭ molecular imager (Bio-Rad, Hercules, CA, USA).
(§1) Trypan blue exclusion assay was performed in SK-UT-1 and MES-SA cell lines treated for 48 h with TP-472 at dose ranges from 1-25 μM.

MES-SA cells = assay: Proliferation assay (trypan blue exclusion), MES-SA; assay type: cell-based, human; conditions: 1-25 μM, 48 h, FIG. 4D
Method: (§2) The leiomyosarcoma (uLMS) cell line (SK-UT1, ATCC® HTB-114TM) (ATCC, Manassas, VA, USA) was cultured and maintained in ATCC-formulated Eagle's Minimum Essential Medium with 10% of fetal bovine serum. In addition, the uterine sarcoma cell line (MES-SA) (ATCC, Manassas, VA, USA) was cultured and maintained in McCoy's 5A medium. The immortalized human leiomyoma cell line (HuLM) and immortalized human uterine smooth muscle (UTSM) cells were a generous gift from Professor Darlene Dixon. The HuLM and UTSM cell lines were cultured and maintained in phenol red-free, Dulbecco's Modified Eagle Medium: Nutrient Mixture F-12. These cell lines, covering the spectrum from normal cell line (UTSM), benign uterine tumor cell line (HuLM), and uterine malignant cell lines (uLMS), were used to better understand the tumor progression linking to the BRD9 dysregulation in uLMS. BRD9 inhibitor (iBRD9) TP-472 was purchased from Tocris (Cat #6000, Minneapolis, MN, USA).
(§3) Cell proliferation was measured using trypan blue exclusion assay; 4 104 cells per well were seeded into 12-well tissue culture plates, treated with the iBRD9 (TP-472) at a dose range from 1-25 μM for 48 h. This assay was performed three times in triplicate.
as §1

SK-UT-1 cells [1] = assay: Proliferation assay (trypan blue exclusion), SK-UT-1; assay type: cell-based, human; conditions: 1-25 μM, 48 h, FIG. 4C
Method: as §2, §3, §1

SK-UT-1 cells [2] = assay: RNA-sequencing of TP-472 vs control treated SK-UT-1 cells; assay type: cell-based, human
Method: To determine the mechanism underlying the inhibitory effect of BRD9 inhibition on the uLMS, the SK-UT-1 cells were treated with iBRD9 TP-472 (5 μM) for 48 h. RNA was isolated using Trizol. RNA quality and quantity were assessed using the Agilent bio-analyzer. Strand-specific RNA-SEQ libraries were prepared using a TruSEQ total RNA-SEQ library protocol (Illumina provided). Library quality and quantity were assessed using the Agilent bio-analyzer and libraries were sequenced using an Illumina NovaSEQ6000 (illumine provided reagents and protocols).
A variety of R packages was used for this analysis. All graphics and data wrangling were handled using the tidyverse suite of packages. All packages used are available from the Comprehensive R Archive Network (CRAN), the Bioconductor project, or Github. The reads were mapped to the human reference transcriptome using STAR, version 2.6.1d (GitHub, Inc., San Francisco, CA, USA). The quality of raw reads, as well as the results of STAR mapping, are generated using fastqc and multiqc. Raw reads were mapped to the human reference transcriptome using Salmon, version 1.4.0. After reading mapping with Salmon, the tximport software package (Bioconductor project, accessed on 27 Oct. 2021) was used to read Salmon outputs into the R environment. Annotation data from Gencode V34 was used to summarize data from transcript-level to gene-level.
For Parsimonious gene correlation network analysis (PGCNA), normalized matrix of DEGs (Adjusted p-Values<0.05 and […]; n=3583) and the top 80% of the most variance genes across samples (n=10,848) were used to network construction. The matrix was used to calculate Spearman rank correlations for all gene pairs using the Python PGCNA2 package. For each gene (row) in a correlation matrix, only the three most correlated edges per gene were retained. The correlation matrices were clustered 100 times using the fast unfolding of communities in a large network's algorithm and the best (judged by modularity score) were used for downstream analysis. Gephi package with the ForceAt-1as2 layout method was used to visualize the network. Enrichment analyses were performed using the Enrichr web server (Ma′ayan lab at Icahn School of Medicine at Mount Sinai, accessed on 10 Jan. 2022) through EnrichR package in R software. Top biological process GO terms with the false discovery rate (FDR)[…] were analyzed using REVIGO to summarize and find a representative subset of the terms. STRING database (accessed on 27 Apr. 2022), which is the online search tool to protein-protein network (PPI) construction, was used to reconstruct each modules network (A combined score≥0.4 of PPI pairs was considered significant), then the Cytoscape software was employed to analyze the obtained networks. In addition, the Venn diagram online tool provided by VIB and Ghent University (accessed on 27 Apr. 2022) was used to investigate the intersection of DEGs and selected modules.
To determine the mechanistic action of TP-472 inhibition on uLMS cells, RNA-sequencing analysis was performed in control and TP-472 treated cells (n=4 each).

BRD9 = BRD9 (Homo sapiens, UniProt Q9H8M2); conditions: cited from earlier work
SK-UT-1 cells [3] = assay: qRT-PCR validation of cell cycle and apoptosis genes; assay type: cell-based, human; conditions: iBRD9 treatment
Method: Total RNA was isolated using Trizol reagent (Invitrogen, Carlsbad, CA, USA). The concentration of total RNA was determined using NanoDrop (Thermo Scientific, Waltham, MA, USA). One microgram of total RNA from each sample was reverse transcribed to complementary DNA (cDNA) using the High-Capacity cDNA Transcription Kit (Thermo Scientific, Waltham, MA, USA). Quantitative real-time polymerase chain reaction (qRT-PCR) was performed to determine the messenger RNA (mRNA) expression of several genes listed with their primer sequences in Table 2. The real-time PCR reactions were performed using CFX96 PCR instrument using SYBR Green Supermix (Bio-Rad, Hercules, CA, USA). 18S was used as an internal control. The results are presented as relative gene expression using CFX Maestro™. The assay was performed three times in triplicate.
Quantitative real-time PCR was performed to determine the mRNA expression of genes as described previously. An equal amount of cDNA from each sample was added to the Master mix containing appropriate primer sets and SYBR green supermix (Bio-Rad) in a 20 μL reaction volume. All samples were analyzed in triplicates. Real-time PCR analyses were performed using a Bio-Rad CFX96. Cycling conditions included denaturation at 95° C. for 2 min followed by 40 cycles of 95° C. for 5 s and 60° C. for 30 seconds then 65° C. for 5 seconds. […]

[4] = SK-UT-1 cells, 5 μM, 48 h, n=4 each
[5] = module I, SK-UT-1, TP-472 5 μM 48 h vs control
[6] = module III, SK-UT-1, TP-472 5 μM 48 h vs control
[7] = module VI, SK-UT-1, TP-472 5 μM 48 h vs control
[8] = module VII, SK-UT-1, TP-472 5 μM 48 h vs control

Sequence of BRD9 (Q9H8M2 whole entry): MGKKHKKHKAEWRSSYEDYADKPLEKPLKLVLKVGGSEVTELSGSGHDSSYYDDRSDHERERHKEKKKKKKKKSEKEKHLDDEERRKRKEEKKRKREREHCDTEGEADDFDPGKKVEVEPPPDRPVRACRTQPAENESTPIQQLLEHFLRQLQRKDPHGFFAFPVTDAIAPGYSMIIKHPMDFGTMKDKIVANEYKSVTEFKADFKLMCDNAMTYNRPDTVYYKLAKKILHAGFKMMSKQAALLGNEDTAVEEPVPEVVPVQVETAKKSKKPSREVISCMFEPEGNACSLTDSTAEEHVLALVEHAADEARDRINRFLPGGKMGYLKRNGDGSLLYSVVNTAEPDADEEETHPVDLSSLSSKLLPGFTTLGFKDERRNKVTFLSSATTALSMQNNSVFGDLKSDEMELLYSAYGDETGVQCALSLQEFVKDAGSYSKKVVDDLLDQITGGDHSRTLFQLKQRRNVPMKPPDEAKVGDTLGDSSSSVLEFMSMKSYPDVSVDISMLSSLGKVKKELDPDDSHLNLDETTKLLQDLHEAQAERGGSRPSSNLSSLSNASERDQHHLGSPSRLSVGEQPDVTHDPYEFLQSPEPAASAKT
Sequence of CECR2 BRD (Q9BXF3 434-538 limits assumed): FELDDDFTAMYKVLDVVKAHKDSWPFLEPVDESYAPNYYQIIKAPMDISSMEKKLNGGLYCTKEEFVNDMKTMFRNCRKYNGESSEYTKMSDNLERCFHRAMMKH

SMILES: Cc1sc2c(c1C)C(c1ccc(Cl)cc1)=N[C@@H](CC(=O)OC(C)(C)C)c1nnc(C)n1-2 [JQ1]
- IL-6 and TNF levels (macrophages): reduce
- tumor growth in ovarian cancer (ovarian cancer): suppresses tumor growth

SMILES: CCCS(=O)(=O)c1nc(NC2CC2)cc(-c2ccc3c(ccn3C3CC(C)(C)NC(C)(C)C3)c2)n1 [NVS-CECR2-1]
- chromatin binding of CECR2 BRD (CECR2 BRD): inhibits
- cytotoxic activity against human cancer cells (SW48 colon cancer cells): killing SW48 colon cancer cells by inducing apoptosis

SMILES: O=C1NC(=NCc2cccs2)S/C1=C\c1ccc2ncccc2c1 [RO3306]
- cell apoptosis and cell cycle in endometrial cancer cells (endometrial cancer cells): induced cell apoptosis and caused G2/M phase arrest

SMILES: CC(=O)c1cc(-c2cc(C(=O)NC3CC3)ccc2C)c2ncccn12 [TP-472]
- tumor growth in melanoma (melanoma): blocked tumor growth
- protein levels of BCL-2 (BCL-2): significantly decreased
- effect on proliferation of MES-SA cells (MES-SA cells): dose-dependent inhibitory effect
- effect on proliferation of SK-UT-1 cells (SK-UT-1 cells [1]): dose-dependent inhibitory effect
- mRNA levels of BAK (SK-UT-1 cells [2]; RNA-seq, treated SK-UT-1 cells vs control, FIG. 7B): significantly increased
- CDKN1A expression (SK-UT-1 cells [2]; RNA-seq, treated uLMS cells vs control, FIG. 7A): significantly higher
- expression of AKT1 (SK-UT-1 cells [2]; RNA-seq, treated uLMS cells, FIG. 7C): markedly decreased
- expression of AKT2 (SK-UT-1 cells [2]; RNA-seq, treated uLMS cells, FIG. 7D): significantly decreased
- expression of Gill (SK-UT-1 cells [2]; RNA-seq, uLMS cells, FIG. 7E): significantly decreased
- GLI2 expression (SK-UT-1 cells [2]; RNA-seq, uLMS cells, FIG. 7F): markedly reduced
- differentially expressed genes (DEGs), down (SK-UT-1 cells [2]; [4]): 1741
- differentially expressed genes (DEGs), total (SK-UT-1 cells [2]; [4]): 3583
- differentially expressed genes (DEGs), up (SK-UT-1 cells [2]; [4]): 1842
- FC of hub gene CEBPB (SK-UT-1 cells [2]; [5]): 1.75
- FC of hub gene EGR1 (SK-UT-1 cells [2]; [5]): 1.63
- FC of hub gene FOS (SK-UT-1 cells [2]; [5]): 1.50
- FC of hub gene GATA2 (SK-UT-1 cells [2]; [5]): 2.26
- FC of hub gene GRIN1 (SK-UT-1 cells [2]; [5]): 2.54
- FC of hub gene MYC (SK-UT-1 cells [2]; [5]): 1.56
- FC of hub gene SHH (SK-UT-1 cells [2]; [5]): 4.66
- FC of hub gene SOX9 (SK-UT-1 cells [2]; [5]): 2.02
- FC of hub gene STX1A (SK-UT-1 cells [2]; [5]): 1.78
- FC of hub gene TERT (SK-UT-1 cells [2]; [5]): 1.68
- FC of hub gene CCT2 (SK-UT-1 cells [2]; [6]): 1.61
- FC of hub gene CYCS (SK-UT-1 cells [2]; [6]): 1.86
- FC of hub gene EIF2S1 (SK-UT-1 cells [2]; [6]): 1.52
- FC of hub gene HSPA8 (SK-UT-1 cells [2]; [6]): 1.75
- FC of hub gene IMP3 (SK-UT-1 cells [2]; [6]): 1.62
- FC of hub gene NIP7 (SK-UT-1 cells [2]; [6]): 1.92
- FC of hub gene NOP56 (SK-UT-1 cells [2]; [6]): 1.64
- FC of hub gene NOP58 (SK-UT-1 cells [2]; [6]): 1.74
- FC of hub gene PA2G4 (SK-UT-1 cells [2]; [6]): 1.55
- FC of hub gene RPL26L1 (SK-UT-1 cells [2]; [6]): 1.58
- FC of hub gene BYSL (SK-UT-1 cells [2]; [7]): 1.75
- FC of hub gene CCND1 (SK-UT-1 cells [2]; [7]): 2.21
- FC of hub gene FN1 (SK-UT-1 cells [2]; [7]): 2.40
- FC of hub gene HRAS (SK-UT-1 cells [2]; [7]): 1.60
- FC of hub gene JUN (SK-UT-1 cells [2]; [7]): 3.13
- FC of hub gene KIT (SK-UT-1 cells [2]; [7]): 20.37
- FC of hub gene LEF1 (SK-UT-1 cells [2]; [7]): 6.22
- FC of hub gene MRTO4 (SK-UT-1 cells [2]; [7]): 2.16
- FC of hub gene PDCD11 (SK-UT-1 cells [2]; [7]): 1.69
- FC of hub gene RRP9 (SK-UT-1 cells [2]; [7]): 2.71
- FC of hub gene CDK1 (SK-UT-1 cells [2]; [8]): −1.56
- FC of hub gene CHEK2 (SK-UT-1 cells [2]; [8]): −1.69
- FC of hub gene FGF2 (SK-UT-1 cells [2]; [8]): −1.56
- FC of hub gene HLTF (SK-UT-1 cells [2]; [8]): −1.78
- FC of hub gene MIS18BP1 (SK-UT-1 cells [2]; [8]): −1.53
- FC of hub gene STAG2 (SK-UT-1 cells [2]; [8]): −1.51
- FC of hub gene TIA1 (SK-UT-1 cells [2]; [8]): −1.60
- FC of hub gene TOP2A (SK-UT-1 cells [2]; [8]): −1.52
- FC of hub gene TOP2B (SK-UT-1 cells [2]; [8]): −1.52
- FC of hub gene WDHD1 (SK-UT-1 cells [2]; [8]): −1.52
- potency for BRD9 (BRD9): high potency
- expression of CDKN1A by q-PCR (SK-UT-1 cells [3]; FIG. 7G): significant increase
- expression of BAK1 by q-PCR (SK-UT-1 cells [3]; FIG. 7H): significant increase

Source: patent US12377103B2, “Use of bromodomain-containing protein 9 inhibitors to treat and/or prevent uterine leiomyosarcoma” (The University of Chicago, priority 2022, dated 2025)
